Data on two compounds can be found in article PMC11009625, “Antibiotic class with potent in vivo activity targeting lipopolysaccharide synthesis in Gram-negative bacteria” (Proceedings of the National Academy of Sciences of the …, 2024).

≈ marks a conversion by molar mass, not a printed value.

Data set [1] has as its system clinical K. pneumoniae isolates (n=104). Description: MIC distribution and MIC90, clinical K. pneumoniae isolates. Type of data set: cell-based. As to conditions: Klebsiella pneumoniae; n=104, isolates from Spain, Poland, Denmark and Wales. The protocol: Minimum inhibitory concentration (MIC) values were determined according to the Clinical Laboratory Standards Institute guidelines. Frequency of resistance was determined by plating ~5 × 10^8 bacterial cells on agar-solidified media plates containing test compound at concentrations corresponding to four times the measured solid-media MIC of the strains. Colonies were counted after 24 h, restreaked onto media containing the same concentration of compound, and the MIC remeasured against the assayed compound. Genomic DNA from isolated clones was sequenced by paired-end sequencing on an Illumina MiSeq device. Complete experimental details available in SI Appendix. […]
Minimum inhibitory concentration (MIC) determination. Broth microdilution and agar dilution MIC assays were conducted according to CLSI guidelines (M07-2012). Appropriate inoculation suspension density was assessed using a Sensititre Nephelometer with a Sensititre 0.5 […]
McFarland Standard. […]
To determine the […]
genotype of MDR strains from the ENABLE strain collection, de novo assembled contigs were analyzed using ResFinder (12–14) […]
MIC distribution versus E. coli (n=111)
Clinical Isolates from Spain, Poland, Denmark and Wales
Figure S4. MIC distribution and MIC90 versus clinical E. coli isolates
MIC distribution versus K. pneumoniae (n=104)
Figure S5. MIC distribution and MIC90 versus clinical K. pneumoniae isolates […]

The nature of the next data set: Safety testing in mice. Type of data set: in vivo. As to conditions: intravenous 50 mg/kg and subcutaneous 100 mg/kg. The protocol: PK and safety studies were done the Latvian Institute for Organic Synthesis (Riga, Latvia) and in vivo efficacy studies were done at Statens Serum Institut (Copenhagen, Denmark). Assays were done in accordance with the relevant permits at the respective sites (SI Appendix). For PK studies, plasma samples were taken from mice dosed subcutaneously and the samples were analyzed by UPLC/MS/MS. For in vivo efficacy studies, neutropenic mice were infected intraperitoneally with 10^6 bacteria and treated with subcutaneously with test compounds 1 h after infection. The mice were euthanized 4 h after treatment and serially diluted samples of blood and peritoneal fluid were plated onto blood agar plates. Complete experimental details available in SI Appendix.
Lantmännen) and water. […]
Safety testing in mice. […] Mice were extensively observed and toxicity signs were scored after 0-2, 5, […]
Plasma sample analysis by UPLC/MS/MS. Concentrations of EBL-3599 and EBL-3647 in mouse blood plasma were measured by liquid chromatography tandem mass spectrometry (LC/MS/MS) in positive electrospray ionization (ESI+) in multi reaction monitoring (MRM) mode. […]
A sample volume of 20 μL was transferred into a plastic tube and mixed with 300μL acetonitrile/methanol mixture (3:1, v/v) to precipitate proteins. […] Bioanalysis of samples from each mouse were measured in duplicate and the results averaged. […]

One may read the MIC90 as an inhibitory concentration at the 90% level, which refers to growth in some studies and to a panel of isolates in others. Low readings indicate greater potency, high ones weaker potency. On to `Cc1cc(C#N)nc(N2CCN(S(=O)(=O)c3ccc(NC(=O)c4cc(CN5CC(CN)C5)ccc4N(C)S(C)(=O)=O)cc3)CC2)n1` [EBL-3647], for which the MIC90 in data set [1] turned out to be 8 µg/mL (≈ 12 µM). The “Tolerability / adverse reactions in mice” value in the data set “Safety testing in mice” is reported as “well tolerated”.
The matching figures for `Cc1cc(C#N)nc(N2CCN(S(=O)(=O)c3ccc(NC(=O)c4cc(CNCCCN)ccc4N(C)S(C)(=O)=O)cc3)CC2)n1.Cl.Cl` [EBL-3599]: 8 µg/mL and “well tolerated”.
